Reference: patent US20100056524A1, “Compound” (priority 2008, published 2010)

Each compound was assayed against T1, TBK1 (Homo sapiens, UniProt Q9UHD2) (assay: TBK1 protein kinase assay ([γ-33P]ATP, P81 filterplates)). Settings: 50 μM ATP; read-out: Potency (TBK1 IC50 potency score).
T1 construct: All protein kinases were of human origin and encoded full length proteins, unless indicated otherwise; His6; made in house; host or cells: insect Sf21 cells
T1 sequence (Q9UHD2 1-729): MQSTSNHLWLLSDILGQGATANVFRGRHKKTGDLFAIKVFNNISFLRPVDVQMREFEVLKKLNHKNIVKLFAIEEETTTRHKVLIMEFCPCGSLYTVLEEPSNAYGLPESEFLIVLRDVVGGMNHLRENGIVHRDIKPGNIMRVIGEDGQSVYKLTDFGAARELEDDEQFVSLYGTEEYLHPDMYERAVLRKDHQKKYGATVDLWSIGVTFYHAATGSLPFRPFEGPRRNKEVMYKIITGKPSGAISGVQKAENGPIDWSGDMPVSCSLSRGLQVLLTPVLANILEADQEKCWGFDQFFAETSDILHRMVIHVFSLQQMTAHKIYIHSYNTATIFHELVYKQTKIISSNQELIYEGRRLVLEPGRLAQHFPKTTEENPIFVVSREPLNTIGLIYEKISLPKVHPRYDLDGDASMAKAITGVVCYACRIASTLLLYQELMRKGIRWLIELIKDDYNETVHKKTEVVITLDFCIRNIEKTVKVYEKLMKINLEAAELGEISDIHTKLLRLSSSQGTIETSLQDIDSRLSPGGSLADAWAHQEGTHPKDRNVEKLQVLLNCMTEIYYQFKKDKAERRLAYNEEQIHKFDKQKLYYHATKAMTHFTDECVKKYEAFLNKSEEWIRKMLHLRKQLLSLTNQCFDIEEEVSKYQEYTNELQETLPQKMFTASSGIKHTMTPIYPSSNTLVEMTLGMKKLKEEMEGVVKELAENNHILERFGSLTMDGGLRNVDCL
Assay type: biochemical
Procedure, shortened: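 Human TBK1 assayed for 30 min with peptide substrate (300 μM), 50 μM [γ-33P]ATP and 10 mM magnesium acetate in 50 mM Tris/HCl pH 7.5, 0.1 mM EGTA, 0.1% 2-mercaptoethanol. Stopped with orthophosphoric acid and counted on P81 filters. IC50 from 10 compound concentrations.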

IC50, < 100 nM:
O=C(NCCCNc1nc(Nc2ccc3cn(CC4CC4)nc3c2)ncc1C1CC1)C1CCC1 [Example 194, Cyclobutanecarboxylic acid {3-[5-cyclopropyl-2-(2-cyclopropylmethyl-2H-indazol-6-ylamino)-pyrimidin-4-ylamino]-propyl}-amide]
CN1CCC(Oc2ccc(Nc3ncc(C4CC4)c(NCCCNC(=O)C4CCC4)n3)cn2)CC1 [Example 195, Cyclobutanecarboxylic acid (3-{5-cyclopropyl-2-[6-(1-methyl-piperidin-4-yloxy)-pyridin-3-ylamino]-pyrimidin-4-ylamino}-propyl)-amide]
CN1CCN(CCOc2ccc(Nc3ncc(C4CC4)c(NCCCNC(=O)C4CCC4)n3)cn2)CC1 [Example 196, Cyclobutanecarboxylic acid [3-(5-cyclopropyl-2-{6-[2-(4-methyl-piperazin-1-yl)-ethoxy]-pyridin-3-ylamino}-pyrimidin-4-ylamino)-propyl]-amide]
CN1CCc2ccc(Nc3ncc(C4CC4)c(NCCCNC(=O)C4CCC4)n3)cc2C1 [Example 197, Cyclobutanecarboxylic acid {3-[5-cyclopropyl-2-(2-methyl-1,2,3,4-tetrahydro-isoquinolin-7-ylamino)-pyrimidin-4-ylamino]-propyl}-amide]
Cn1cnc2cc(Nc3ncc(C4CC4)c(NCCCNC(=O)C4CCC4)n3)cnc21 [Example 198, Cyclobutanecarboxylic acid {3-[5-cyclopropyl-2-(3-methyl-3H-imidazo[4,5-b]pyridin-6-ylamino)-pyrimidin-4-ylamino]-propyl}-amide]
CN1CCc2cc(Nc3ncc(C4CC4)c(NCCCNC(=O)C4CCC4)n3)ccc2C1 [Example 199, Cyclobutanecarboxylic acid {3-[5-cyclopropyl-2-(2-methyl-1,2,3,4-tetrahydro-isoquinolin-6-ylamino)-pyrimidin-4-ylamino]-propyl}-amide]
Cn1ncc2cc(Nc3ncc(C4CC4)c(NCCCNC(=O)C4CCC4)n3)cnc21 [Example 200, Cyclobutanecarboxylic acid {3-[5-cyclopropyl-2-(1-methyl-1H-pyrazolo[3,4-b]pyridin-5-ylamino)-pyrimidin-4-ylamino]-propyl}-amide]
O=C(NCCCNc1nc(Nc2cnn(CC3CC3)c2)ncc1C1CC1)C1CCC1 [Example 201, Cyclobutanecarboxylic acid {3-[5-cyclopropyl-2-(1-cyclopropylmethyl-1H-pyrazol-4-ylamino)-pyrimidin-4-ylamino]-propyl}-amide]
O=C(NCCCNc1nc(Nc2cnn(C3CCC3)c2)ncc1C1CC1)C1CCC1 [Example 202, Cyclobutanecarboxylic acid {3-[2-(1-cyclobutyl-1H-pyrazol-4-ylamino)-5-cyclopropyl-pyrimidin-4-ylamino]-propyl}-amide]
CC(C)N1CCC(n2cc(Nc3ncc(C4CC4)c(NCCCNC(=O)C4CCC4)n3)cn2)CC1 [Example 203, Cyclobutanecarboxylic acid (3-{5-cyclopropyl-2-[1-(1-isopropyl-piperidin-4-yl)-1H-pyrazol-4-ylamino]-pyrimidin-4-ylamino}-propyl)-amide]
CNc1ccc(Nc2ncc(C3CC3)c(NCCCNC(=O)C3CCC3)n2)cn1 [Example 204, Cyclobutanecarboxylic acid {3-[5-cyclopropyl-2-(6-methylamino-pyridin-3-ylamino)-pyrimidin-4-ylamino]-propyl}-amide]
CC(C)(C)N1CCC(n2cc(Nc3ncc(C4CC4)c(NCCCNC(=O)C4CCC4)n3)cn2)CC1 [Example 205, Cyclobutanecarboxylic acid (3-{2-[1-(1-tert-butyl-piperidin-4-yl)-1H-pyrazol-4-ylamino]-5-cyclopropyl-pyrimidin-4-ylamino}-propyl)-amide]
O=C(NCCCNc1nc(Nc2ccc(N3CCN(C4CC4)CC3)nc2)ncc1C1CC1)C1CCC1 [Example 206, Cyclobutanecarboxylic acid (3-{5-cyclopropyl-2-[6-(4-cyclopropyl-piperazin-1-yl)-pyridin-3-ylamino]-pyrimidin-4-ylamino}-propyl)-amide]
O=C(NCCCNc1nc(Nc2ccc(NC3CCOCC3)nc2)ncc1C1CC1)C1CCC1 [Example 207, Cyclobutanecarboxylic acid (3-{5-cyclopropyl-2-[6-(tetrahydro-pyran-4-ylamino)-pyridin-3-ylamino]-pyrimidin-4-ylamino}-propyl)-amide]
O=C(NCCCNc1nc(Nc2ccc(C3CC3)nc2)ncc1C1CC1)C1CCC1 [Example 208, Cyclobutanecarboxylic acid {3-[5-cyclopropyl-2-(6-cyclopropyl-pyridin-3-ylamino)-pyrimidin-4-ylamino]-propyl}-amide]
Cc1nc2ccc(Nc3ncc(C4CC4)c(NCCCNC(=O)C4CCC4)n3)cc2[nH]1 [Example 209, Cyclobutanecarboxylicacid{3-[5-cyclopropyl-2-(2-methyl-3H-benzimidazol-5-ylamino)-pyrimidin-4-ylamino]-propyl}-amide]
O=C(NCCCNc1nc(Nc2ccc3c(cnn3C3CC3)c2)ncc1C1CC1)C1CCC1 [Example 210, Cyclobutanecarboxylicacid{3-[5-cyclopropyl-2-(1-cyclopropyl-1H-indazol-5-ylamino)-pyrimidin-4-ylamino]-propyl}-amide]
O=C(NCCCNc1nc(Nc2ccc3cnn(C4CC4)c3c2)ncc1C1CC1)C1CCC1 [Example 211, Cyclobutanecarboxylicacid{3-[5-cyclopropyl-2-(1-cyclopropyl-1H-indazol-6-ylamino)-pyrimidin-4-ylamino]-propyl}-amide]
O=C(NCCCNc1nc(Nc2ccc3c(cnn3CC3CC3)c2)ncc1C1CC1)C1CCC1 [Example 212, Cyclobutanecarboxylicacid{3-[5-cyclopropyl-2-(1-cyclopropylmethyl-1H-indazol-5-ylamino)-pyrimidin-4-ylamino]-propyl}-amide]
O=C(NCCCNc1nc(Nc2ccc3nn(CC4CC4)cc3c2)ncc1C1CC1)C1CCC1 [Example 213, Cyclobutanecarboxylicacid{3-[5-cyclopropyl-2-(2-cyclopropylmethyl-2H-indazol-5-ylamino)-pyrimidin-4-ylamino]-propyl}-amide]
O=C(NCCCNc1nc(Nc2ccc3[nH]nnc3c2)ncc1C1CC1)C1CCC1 [Example 214, Cyclobutanecarboxylicacid{3-[2-(1H-benzotriazol-5-ylamino)-5-cyclopropyl-pyrimidin-4-ylamino]-propyl}-amide]
